Source: patent publication US11591331B2, “PARP1 inhibitors and uses thereof” (Xinthera, Inc., priority 2021, dated 2023)

Tests used:
DLD-1 BRCA2(−/−) = assay: Cell growth inhibition assay (CellTiter-Glo cell viability, 7 days); type: cell-based; conditions: Homo sapiens, 168 h, DLD-1 BRCA2(-/-) cells
[1] = tested on: MDA-MB-436 (mutated BRCA1) cell lines; assay: as above; type: cell-based; conditions: Homo sapiens, 168 h, MDA-MB-436 cells

EC50 (DLD-1 BRCA2(−/−)) | EC50 [1] | SMILES
43 nM | 35 nM | CNC(=O)c1ccc(N2CCN([C@@H](C)c3cnc4cc(C)c(=O)[nH]c4c3)C[C@H]2C)cn1 (single isomer, unassigned) [Example 121]
46 nM | 11 nM | CNC(=O)c1ccc(N2CCN([C@H](C)c3cnc4cc(C)c(=O)[nH]c4c3)C[C@H]2C)cn1 (single isomer, unassigned) [Example 122]
7.5 nM | 17 nM | CNC(=O)c1ccc(N2CCN([C@@H](C)c3cnc4cc(C)c(=O)[nH]c4c3)CC2)cn1 (single isomer, unassigned) [Example 124]
8.5 nM | 13 nM | CNC(=O)c1ccc(N2CCN([C@H](C)c3cnc4cc(C)c(=O)[nH]c4c3)CC2)cn1 (single isomer, unassigned) [Example 125]
14 nM | 4.3 nM | Cc1cc2ncc([C@H](C)N3CCN(c4ccc(C(=O)NC5CC5)nc4)CC3)cc2[nH]c1=O (single isomer, unassigned) [Example 126]
15 nM | 7.3 nM | Cc1cc2ncc([C@@H](C)N3CCN(c4ccc(C(=O)NC5CC5)nc4)CC3)cc2[nH]c1=O (single isomer, unassigned) [Example 127]
13 nM | 12 nM | CNC(=O)c1ccc(N2CCN(Cc3cnc4cc([C@@H]5CC5(F)F)c(=O)[nH]c4c3)CC2)cn1 (single isomer, unassigned) [Example 143]
6.7 nM | 4.4 nM | CCc1cc2ncc(CN3CCN(c4ccc(C(=O)NC[C@@H]5CCOC5)nc4)CC3)cc2[nH]c1=O [Example 40]
2.4 nM | 1.9 nM | CCc1cc2ncc(CN3CCN(c4ccc(C(=O)NC[C@H]5CCOC5)nc4)CC3)cc2[nH]c1=O [Example 41]
2.4 nM | 3.2 nM | CCc1cc2ncc(CN3CCN(c4ccc(C(=O)NC(C)C)nc4)CC3)cc2[nH]c1=O [Example 43]
7.4 nM | 5.3 nM | CCc1cc2ncc(CN3CCN(c4ccc(C(=O)NC5CCOCC5)nc4)CC3)cc2[nH]c1=O [Example 44]
16 nM | 4.3 nM | CCc1cc2ncc(CN3CCN(c4ccc(C(=O)N[C@H]5C[C@@](C)(O)C5)nc4)CC3)cc2[nH]c1=O [Example 45]
3.7 nM | 1.2 nM | CCc1cc2ncc(CN3CCN(c4ccc(C(=O)NC5COC5)nc4)CC3)cc2[nH]c1=O [Example 46]
7.7 nM | 3.3 nM | CCc1cc2ncc(CN3CCN(c4ccc(C(=O)N[C@H]5CCOC5)nc4)CC3)cc2[nH]c1=O [Example 47]
2.7 nM | 1.7 nM | CCc1cc2ncc(CN3CCN(c4ccc(C(=O)N[C@@H]5CCOC5)nc4)CC3)cc2[nH]c1=O [Example 48]
5.5 nM | 2.4 nM | CCc1cc2ncc(CN3CCN(c4ccc(C(=O)N[C@H]5CCC[C@@H]5O)nc4)CC3)cc2[nH]c1=O [Example 49]
11 nM | 1.4 nM | CCc1cc2ncc(CN3CCN(c4ccc(C(=O)N[C@H]5C[C@](C)(O)C5)nc4)CC3)cc2[nH]c1=O [Example 55]
11 nM | 3.6 nM | CCc1cc2ncc(CN3CCN(c4ccc(C(=O)NC[C@@H](C)O)nc4)CC3)cc2[nH]c1=O [Example 57]
3.5 nM | 0.9 nM | CCc1cc2ncc(CN3CCN(c4ccc(C(=O)N[C@H]5C[C@@H](C#N)C5)nc4)CC3)cc2[nH]c1=O [Example 58]
16 nM | 7.8 nM | CCc1cc2ncc(CN3CCN(c4ccc(C(=O)N[C@H](C)CO)nc4)CC3)cc2[nH]c1=O [Example 59]
9.3 nM | 3.2 nM | Cc1cc2ncc(CN3CCN(c4ccc(C(=O)NC5CC5)nc4)CC3)cc2[nH]c1=O [Example 63]
1.8 nM | 1.1 nM | [2H]C([2H])([2H])NC(=O)c1ccc(N2CCN(Cc3cnc4cc(C5CC5)c(=O)[nH]c4c3)CC2)cn1 [Example 67]
37 nM | 9.8 nM | Cc1cc2ncc(CN3CCN(c4ccc(C(=O)NC5COC5)c(F)c4)CC3)cc2[nH]c1=O [Example 80]
5.9 nM | 4.5 nM | O=C(NC1COC1)c1ccc(N2CCN(Cc3cnc4cc(C5CC5)c(=O)[nH]c4c3)CC2)cn1 [Example 81]

Further lines, the molecule ahead of its results:

SMILES | EC50 (DLD-1 BRCA2(−/−)) | EC50 [1]
CCc1cc2ncc(CN3CCN(c4ccc(C(=O)NC)c(=O)n4C)[C@@H]4C[C@@H]43)cc2[nH]c1=O (single isomer, unassigned) [Example 114] | 11 nM | 5.1 nM
CNC(=O)c1ccc(N2CCN(Cc3ccc4c5c(c(=O)[nH]c4c3)CCO5)CC2)cn1 [Example 18, N-methyl-5-[4-({4-oxo-2H,3H,5H-furo[3,2-c]quinolin-7-yl}methyl)piperazin-1-yl]pyridine-2-carboxamide] | 5.1 nM | 2.3 nM
CCc1cc2ncc(CN3CCN(c4ccc(-c5ncc[nH]5)nc4)CC3)cc2[nH]c1=O [Example 19, 3-ethyl-7-({4-[6-(1H-imidazol-2-yl)pyridin-3-yl]piperazin-1-yl}methyl)-1H-1,5-naphthyridin-2-one] | 3.7 nM | 1.8 nM
CCc1cc2ncc(CN3CCN4c5ccc(C(=O)NC)nc5OC[C@@H]4C3)cc2[nH]c1=O [Example 22B, (10S)-12-[(7-ethyl-6-oxo-5H-1,5-naphthyridin-3-yl)methyl]-N-methyl-8-oxa-1,6,12-triazatricyclo[8.4.0.0^{2,7}]tetradeca-2,4,6-triene-5-carboxamide] | 490 nM | 160 nM
CCc1cc2ncc(CN3CCC(c4cnc(C(=O)NC)c(F)c4)CC3)cc2[nH]c1=O [Example 23, 5-{1-[(7-ethyl-6-oxo-5H-1,5-naphthyridin-3-yl)methyl]piperidin-4-yl}-3-fluoro-N-methylpyridine-2-carboxamide] | 6 nM | 2.2 nM
CCc1cc2ncc(CN3CC(N(C)c4ccc(C(=O)NC)nc4)C3)cc2[nH]c1=O [Example 26, 5-({1-[(7-ethyl-6-oxo-5H-1,5-naphthyridin-3-yl)methyl]azetidin-3-yl}(methyl)amino)-N-methylpyridine-2-carboxamide] | 33 nM | 39 nM
CNC(=O)c1ccc(N2CCN(Cc3cnc4cc(C)c(=O)[nH]c4c3)CC2)c(C#N)n1 [Example 37] | 1.4 nM | 0.5 nM
CNC(=O)c1ccc(N2CCN(Cc3cnc4cc(C)c(=O)[nH]c4c3)CC2)c(C#N)c1 [Example 38] | 7.6 nM | 5.3 nM
CCc1cc2ncc(CN3CCN(c4cnc(C(=O)NC)c(F)c4)[C@H](C)C3)cc2[nH]c1=O [Example 39] | 3.3 nM | 2.7 nM
CCc1cc2ncc(CN3CCN(c4ccc(C(=O)NCCOC)nc4)CC3)cc2[nH]c1=O [Example 42] | 3.3 nM | 4.1 nM
CCc1cc2ncc(CN3CCN(c4ccc(C(=O)NCCC#N)nc4)CC3)cc2[nH]c1=O [Example 50] | 4.5 nM | 2.1 nM
CCc1cc2ncc(CN3CCN(c4cc(F)c(C(=O)NC)cn4)CC3)cc2[nH]c1=O [Example 51] | 17 nM | 6.4 nM
CCc1cc2ncc(CN3CCN(c4ccc(C(=O)NCC(C)(C)O)nc4)CC3)cc2[nH]c1=O [Example 52] | 12 nM | 4 nM
CCc1cc2ncc(CN3CCN(c4ccc(C(=O)NC[C@@H](C)OC)nc4)CC3)cc2[nH]c1=O [Example 60] | 14 nM | 5 nM
CCc1cc2ncc(CN3CCN(c4ccc(C(=O)NC)nn4)CC3)cc2[nH]c1=O [Example 61] | 6.3 nM | 4.8 nM
CNC(=O)c1ccc(C2=CCN(Cc3cnc4cc(C5CC5)c(=O)[nH]c4c3)CC2)cn1 [Example 64] | 0.92 nM | 0.64 nM

SMILES | EC50 (DLD-1 BRCA2(−/−)) | EC50 [1]
CCc1cc2ncc(CN3CCN(c4ccc(C(=O)NC)c(=O)n4C)CC3)cc2[nH]c1=O [Example 65] | 13 nM | 3.1 nM
CNC(=O)c1ccc(N2CCN(Cc3cnc4cc(C)c(=O)[nH]c4c3)C[C@H]2C)c(C#N)n1 [Example 66] | 4.1 nM | 1.7 nM
CCc1cc2ncc(CN3CCN(c4ccc(-c5cnc[nH]5)c(F)c4)CC3)cc2[nH]c1=O [Example 70] | 5.5 nM | 2.6 nM
CNC(=O)c1ncc(N2CCN(Cc3ccc4c5c(c(=O)[nH]c4c3)CCO5)CC2)cc1F [Example 71] | 13 nM | 5.9 nM
[2H]C([2H])([2H])NC(=O)c1ccc(N2CCN(Cc3ccc4c5c(c(=O)[nH]c4c3)CCO5)CC2)cn1 [Example 73] | 4.2 nM | 2.2 nM
CNC(=O)c1ccc(N2CCN(Cc3cnc4cc(C5CC5)c(=O)[nH]c4c3)C[C@H]2C)cn1 [Example 74] | 7.8 nM | 3.9 nM
CCc1cc2ncc(CN3CCN(c4ccc(NC(=O)C5CC5)nc4)CC3)cc2[nH]c1=O [Example 75] | 2.6 nM | 1.5 nM
CNC(=O)c1ccc2c(n1)OC[C@@H]1CN(Cc3cnc4cc(C)c(=O)[nH]c4c3)CCN21 [Example 77] | 8.5 nM | 5.8 nM
CNC(=O)c1ccc2c(n1)OC[C@@H]1CN(Cc3cnc4cc(C5CC5)c(=O)[nH]c4c3)CCN21 [Example 78] | 2.8 nM | 1.8 nM
CCc1cc2ncc(CN3CCN(c4ccc(C(=O)NC5COC5)nc4)[C@H](C)C3)cc2[nH]c1=O [Example 79] | 9.6 nM | 3.7 nM
CCc1cc2ncc(CN3CCN(c4ccccn4)CC3)cc2[nH]c1=O [Example 82, 3-ethyl-7-{[4-(pyridin-2-yl)piperazin-1-yl]methyl}-1H-1,5-naphthyridin-2-one] | 10 nM | 7.8 nM
C#Cc1ccc(N2CCN(Cc3cnc4cc(CC)c(=O)[nH]c4c3)CC2)nc1 [Example 83] | 1.5 nM | 1.4 nM
CNC(=O)c1ccc(N2CCN(Cc3cnc4c5c(c(=O)[nH]c4c3)CCC5)CC2)cn1 [Example 84] | 2.2 nM | 2 nM
CCc1cc2nnc(CN3CCN(c4ccc(C(=O)NC)nc4)CC3)cc2[nH]c1=O [Example 86] | 6 nM | 6.1 nM
CCc1nc2cnc(CN3CCN(c4ccc(C(=O)NC)nc4)CC3)cc2[nH]c1=O [Example 87] | 6.5 nM | 5.3 nM
